Experiments:
Format in all cases: cell-based, mouse
[1] = test system: 2D2 cells (MOG-specific CD4+ T cells); assay: PD-1 and CTLA-4 expressions of myelin-specific 2D2 cells after co-culture (FACS); conditions: E:T 10:1, 48 h
Procedure: Myelin-specific CD4 T cell in vitro activation: Mouse IFN-γ and mouse IL-17A secreted from the activated myelin-specific 2D2 cells were quantified by ELISA assays as previously reported^56. […] The cell culture media (contain mainly the 2D2 cells) were preserved. 2D2 cells were collected from the cultured media via centrifugation at 1,000 g for 10 min. The moue IFN-γ and mouse IL-17A concentrations in the supernatants were quantified via mouse IFN-γ ELISA kit (ab100689; Abcam, Cambridge, MA) and mouse IL-17A ELISA kit (ab199081; Abcam, Cambridge, MA), according to manufacturer's instructions. […] MIH4, catalog number: 53-9969-42, Invitrogen), PE-labeled anti-mouse CTLA-4 antibody (clone: […] Stained cells were fixed with 4% paraformaldehyde (4% PFA; Sigma) and kept in dark at 4° C. before further FACS study.

MSCs = assay: MTS viability assay, MSCs
Procedure: (§1) In vitro toxicity of Ac4ManNAz and LEF, and viabilities of functionalized MSCs and MOLs: In vitro toxicities of Ac4ManNAz and LEF against MSCs and MOLs, and the viabilities of functionalized MSCs and MOLs were quantified by MTS assay. Briefly, treated/functionalized cells were cultured in complete media for 4 days. The phenol-red media was replaced by phenol red-free DMEM (supplemented with 10% FBS) before quantifying the viabilities via MTS assay according to the manufacturer's protocol. The MSCs were seeded at a density of 2×10^4 cells per well and the MOLs were seeded at a density of 1×10^4 cells per well in a 96-well plate.

MOLs = assay: MTS viability assay, MOLs
Procedure: as §1

Cc1oncc1C(=O)Nc1ccc(C(F)(F)F)cc1 [small-molecule LEF, Leflunomide]
upregulation of PD-1 and CTLA-4 in co-cultured 2D2 cells [1]: increased the expression of CTLA-4 in the co-cultured 2D2 cells | in vitro toxicity against MSCs (MSCs): moderate in vitro toxicity | in vitro toxicity against MOLs (MOLs): insignificant toxicity
